Key:
S. aureus [1] = experiment: Automated MIC assay (Sensititre) of antibiotics with and without HBV; assay type: cell-based; details: with vs without 4 ug/ml HBV
S. epidermidis = experiment: as above; assay type: cell-based; details: with vs without 4 ug/ml HBV
Streptococcus faecalis = experiment: as above; assay type: cell-based; details: Streptococcus faecalis strain 81-; with vs without 4 ug/ml HBV
E. coli = experiment: as above; assay type: cell-based; details: with vs without 4 ug/ml HBV
S. aureus [2] = experiment: Equivalent doses of melittin fraction and whole honeybee venom with and without kanamycin (growth curves); assay type: cell-based; details: for MEAN A660: doses of what is present: KANA = 2.5, MEL = 1.6, HBV = 2 (ug/ml)
[3] = test system: E. Coli strain No. G1108E; experiment: Checkerboard titration synergy assay of natural melittin and analogue #6 with polymyxin B; assay type: cell-based
E. coli G1108E = experiment: Checkerboard titration synergy assay of melittin analogues with polymyxin B; assay type: cell-based
[4] = test system: 30 random strains of bacteria; details: Sephadex G-50 purified melittin fraction; cited from earlier work

Gentamicin
effect of 4 ug/ml HBV on the MIC of the antibiotic (S. aureus [1]; S. aureus strain 51072): +^ (A (+) indicates a MIC decrease greater than or equal to two dilution steps.) | effect of 4 ug/ml HBV on the MIC of the antibiotic (S. aureus [1]; S. aureus strain QC (printed 0C)): +^ (A (+) indicates a MIC decrease greater than or equal to two dilution steps.) | effect of 4 ug/ml HBV on the MIC of the antibiotic (S. epidermidis; S. epidermidis strain 5905): − (A (−) indicates a MIC decrease of less than two dilution steps.) | effect of 4 ug/ml HBV on the MIC of the antibiotic (S. epidermidis; S. epidermidis strain 5907): − (A (−) indicates a MIC decrease of less than two dilution steps.) | effect of 4 ug/ml HBV on the MIC of the antibiotic (S. epidermidis; S. epidermidis strain 7905): − (A (−) indicates a MIC decrease of less than two dilution steps.) | effect of 4 ug/ml HBV on the MIC of the antibiotic (S. epidermidis; S. epidermidis strain 7908): + (A (+) indicates a MIC decrease greater than or equal to two dilution steps.) | effect of 4 ug/ml HBV on the MIC of the antibiotic (S. epidermidis; S. epidermidis strain 39817): + (A (+) indicates a MIC decrease greater than or equal to two dilution steps.) | effect of 4 ug/ml HBV on the MIC of the antibiotic (Streptococcus faecalis): − (A (−) indicates a MIC decrease of less than two dilution steps.) | effect of 4 ug/ml HBV on the MIC of the antibiotic (E. coli; E. coli strain 1173): − (A (−) indicates a MIC decrease of less than two dilution steps.) | effect of 4 ug/ml HBV on the MIC of the antibiotic (E. coli; E. coli strain 4302): + (A (+) indicates a MIC decrease greater than or equal to two dilution steps.) | effect of 4 ug/ml HBV on the MIC of the antibiotic (E. coli; E. coli strain 19033): + (A (+) indicates a MIC decrease greater than or equal to two dilution steps.) | effect of 4 ug/ml HBV on the MIC of the antibiotic (E. coli; E. coli strain QC): + (A (+) indicates a MIC decrease greater than or equal to two dilution steps.)

Melittin (1-20)-Lys-Arg-Lys-Arg-Gln-Gln-NH2.
MEAN A660 (S. aureus [2]; T0): 0.021 | MEAN A660 (S. aureus [2]; T2): 0.080 | MEAN A660 (S. aureus [2]; T4): 0.374 | MEAN A660 (S. aureus [2]; T6): 1.099 | MEAN A660 (S. aureus [2]; T8): 1.288 | MEAN A660 (S. aureus [2]; T12): 1.339 | MEAN A660 (S. aureus [2]; T24): 1.415 | antibacterial activity of the melittin fraction compared with whole HBV, in combination with kanamycin (S. aureus [2]; equivalent doses with equal doses of kanamycin (FIG. 15)): None of the optical densities at any time point on the two curves are significantly different | antibacterial activity of the melittin fraction compared with whole HBV (S. aureus [2]; equivalent doses, without antibiotic (FIG. 14)): No significant differences | Average optical densities (OD660) ([3]; 0 hrs, doses of what is present: Polymyxin B 3 units, peptide 5 ug): .013 | Average optical densities (OD660) ([3]; 0 hrs, doses of what is present: Polymyxin B 6 units, peptide 10 ug): .013 | Average optical densities (OD660) ([3]; 2 hrs, doses of what is present: Polymyxin B 3 units, peptide 5 ug): .072 | Average optical densities (OD660) ([3]; 2 hrs, doses of what is present: Polymyxin B 6 units, peptide 10 ug): .072 | Average optical densities (OD660) ([3]; 4 hrs, doses of what is present: Polymyxin B 3 units, peptide 5 ug): .833 | Average optical densities (OD660) ([3]; 4 hrs, doses of what is present: Polymyxin B 6 units, peptide 10 ug): .0827 | Average optical densities (OD660) ([3]; 6 hrs, doses of what is present: Polymyxin B 3 units, peptide 5 ug): 1.10 | Average optical densities (OD660) ([3]; 6 hrs, doses of what is present: Polymyxin B 6 units, peptide 10 ug): 1.09 | Average optical densities (OD660) ([3]; 8 hrs, doses of what is present: Polymyxin B 3 units, peptide 5 ug): 1.11 | Average optical densities (OD660) ([3]; 8 hrs, doses of what is present: Polymyxin B 6 units, peptide 10 ug): 1.10 | Average optical densities (OD660) ([3]; 12 hrs, doses of what is present: Polymyxin B 3 units, peptide 5 ug): 1.18 | Average optical densities (OD660) ([3]; 12 hrs, doses of what is present: Polymyxin B 6 units, peptide 10 ug): 1.19 | relative in vitro activity, place in ascending order (E. coli G1108E; 5 ug/ml peptide with 6 units/ml polymyxin B, delay time until mid-log phase (FIG. 26)): 2 | effect of the peptide alone on the growth of E. coli (E. coli G1108E; used alone at 10 ug/ml or less): no effect | antibacterial activity [4]: potent antibacterial activity

Source: patent US20010021697A1, “METHODS AND COMPOSITIONS FOR THE TREATMENT OF MAMMALIAN INFECTIONS EMPLOYING MEDICAMENTS COMPRISING HYMENOPTERA VENOM, PROTEINAGEOUS OR POLYPEPTIDE COMPONENTS THEREOF, OR ANALOGUES OF SUCH PROTEINACEOUS OR POLYPEPTIDE COMPONENTS” (priority 1987, published 2001)
